Bounds are passed on as bounds.

This is an account of results in patent US9212138B2, “Use of derivatives of indoles for the treatment of cancer” (CENTRE NATIONAL DE LA RECHERCHE SCIENTIFIQUE, priority 2009, dated 2015).

The target of one test is T1, MKLP-2 (RabK6) (Homo sapiens, UniProt O95235, S2A).
T1 construct: Expression clones for MKLP-21-519 (coding for residues 1 to 519) were obtained as follows; His-tag; made in house; host or cells: E. coli BL21(DE3)
T1 sequence (O95235 1-519 S2A limits assumed): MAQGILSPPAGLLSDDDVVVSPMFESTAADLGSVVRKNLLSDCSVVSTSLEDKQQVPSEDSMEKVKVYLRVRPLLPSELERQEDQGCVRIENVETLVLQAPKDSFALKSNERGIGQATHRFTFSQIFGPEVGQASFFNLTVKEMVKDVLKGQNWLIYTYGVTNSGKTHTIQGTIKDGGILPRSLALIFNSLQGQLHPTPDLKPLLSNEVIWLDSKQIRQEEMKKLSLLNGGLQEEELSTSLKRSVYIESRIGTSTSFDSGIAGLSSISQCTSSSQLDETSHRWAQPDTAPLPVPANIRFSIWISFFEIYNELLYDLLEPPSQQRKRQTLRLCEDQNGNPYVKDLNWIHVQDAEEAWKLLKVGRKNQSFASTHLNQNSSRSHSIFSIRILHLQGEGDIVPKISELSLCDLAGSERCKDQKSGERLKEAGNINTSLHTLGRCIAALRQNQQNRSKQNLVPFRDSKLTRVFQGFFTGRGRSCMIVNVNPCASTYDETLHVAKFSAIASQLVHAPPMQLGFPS
The test can be described thus: biochemical.
Details: not given
How it is done: All experiments were performed at room temperature using a 96-well Sunrise photometer (Tecan, Maennedorf, Switzerland) at a final volume of 100 μl per well.
Steady-state ATPase rates were measured using the pyruvate kinase/lactate dehydrogenase-linked assay in buffer A25A (25 mM potassium ACES, pH 6.9, 2 mM MgAc2, 2 mM Na-EGTA, 0.1 mM Na-EDTA, 1 mM β-mercaptoethanol) supplemented with 1 mM MgATP; 2 mM PEP; 0.25 mM NADH; 3-10 μg/ml pyruvate kinase; 3 μg/ml lactate dehydrogenase and 8 μM taxol.
The data were analyzed using Kaleidagraph 3.0 (Synergy Software, Reading, Pa.) and Microsoft Excel to obtain the kinetic variables.
When necessary, the inhibitor concentrations were adapted depending on the initial IC50 value. Experiments were performed in triplicate and averaged data points are shown with error bars±SD.
In the case of `COc1ccc2[nH]cc(C(C)=Cc3cccnc3)c2c1` (racemic) [Example 59, 5-methoxy-3-(1-(pyridin-3-yl)prop-1-en-2-yl)-1H-indole], the IC50 is less than 5 µM.

Consider `N#C/C(=C\c1cccnc1)c1c[nH]c2ccc(F)cc12` [Example 25, (Z)-2-(5-fluoro-1H-indol-3-yl)-3-pyridin-3-yl-acrylonitrile], for which the IC50 was less than 5 µM.

For `COc1ccc2c(/C(C#N)=C/c3cccnc3)c[nH]c2c1` [Example 26, (Z)-2-(6-methoxy-1H-indol-3-yl)-3-pyridin-3-yl-acrylonitrile], the IC50 is 5 to 10 µM.

Consider `COc1cccc2[nH]cc(/C(C#N)=C/c3cccnc3)c12` [Example 27, (Z)-2-(4-methoxy-1H-indol-3-yl)-3-pyridin-3-yl-acrylonitrile], for which the IC50 was in the range of 10 to 20 µM.

On to `COc1ccc2[nH]cc(/C(C#N)=C/c3ccc(F)nc3)c2c1` [Example 28, (Z)-3-(6-fluoropyridin-3-yl)-2-(5-methoxy-1H-indol-3-yl)-acrylonitrile], for which the IC50 was less than 5 µM.

As for `N#C/C(=C\c1cccnc1)c1c[nH]c2ccc(O)cc12` [Example 29, (Z)-2-(5-hydroxy-1H-indol-3-yl)-3-pyridin-3-yl-acrylonitrile], the IC50 was less than 5 µM.

For `COc1ccc2[nH]cc(/C(C#N)=C/c3cccc(C#N)c3)c2c1` [Example 30, (Z)-3-[2-cyano-2-(5-methoxy-1H-indol-3-yl)-vinyl]-benzonitrile], the half-inhibitory concentration (IC50) is less than 5 µM.

Regarding `COc1ccc2[nH]cc(/C(C#N)=C/c3cnccc3C)c2c1` [Example 31, (Z)-2-(5-methoxy-1H-indol-3-yl)-3-(4-methyl-pyridin-3-yl)-acrylonitrile], the IC50 was less than 5 µM.

On to `COc1ccc2[nH]cc(/C(C#N)=C/c3cccc(C(N)=O)c3)c2c1` [Example 32, (Z)-3-[2-cyano-2-(5-methoxy-1H-indol-3-yl)-vinyl]-benzamide], for which the IC50 lay within 10 to 20 µM.

For `COc1ccc2[nH]cc(/C(C#N)=C/c3ccc[n+](C)c3)c2c1` [Example 33, (Z)-3-[2-cyano-2-(5-methoxy-1H-indol-3-yl)-vinyl]-1-methylpyridinium iodide], the IC50 was 10 to 20 µM.

As to `CCCc1nc2c(ccc3[nH]cc(/C(C#N)=C/c4cccnc4)c32)o1` [Example 34, (Z)-2-(2-propyl-6H-oxazolo[4,5-e]indol-8-yl)-3-(pyridin-3-yl)acrylonitrile], the IC50 is more than 50 µM.

With `COc1cc(-c2ccc3[nH]cc(/C(C#N)=C/c4cccnc4)c3c2)cc(OC)c1OC` [Example 38, (Z)-3-(pyridin-3-yl)-2-(5-(3,4,5-trimethoxyphenyl)-1H-indol-3-yl)-acrylonitrile], the IC50 was in the range of 5 to 10 µM.

As for `N#C/C(=C\c1cccnc1)c1c[nH]c2ccc(-c3ccc(F)cc3)cc12` [Example 39, (Z)-2-(5-(4-fluorophenyl)-1H-indol-3-yl)-3-(pyridin-3-yl)-acrylonitrile], the IC50 was 10 to 20 µM.

In the case of `COC(=O)Nc1ccc2[nH]cc(/C(C#N)=C/c3cccnc3)c2c1` [Example 41, (Z)-methyl 3-(1-cyano-2-(pyridin-3-yl)vinyl)-1H-indol-5-ylcarbamate], the IC50 was less than 5 µM.

For `N#C/C(=C\c1cccc([N+](=O)[O-])c1)c1c[nH]c2ccccc12` [Example 42, (Z)-2-(1H-indol-3-yl)-3-(3-nitro-phenyl)-acrylonitrile], the IC50 is more than 50 µM.

As to `COc1ccc2[nH]cc(/C(C#N)=C/c3cccc([N+](=O)[O-])c3)c2c1` [Example 43, (Z)-2-(5-methoxy-1H-indol-3-yl)-3-(3-nitro-phenyl)-acrylonitrile], the IC50 is more than 50 µM.

As to `N#C/C(=C\c1cccc(N)c1)c1c[nH]c2ccccc12` [Example 44, (Z)-3-(3-amino-phenyl)-2-(1H-indol-3-yl)-acrylonitrile], the IC50 was more than 50 µM.

`COc1ccc2[nH]cc(/C(C#N)=C/c3cccc(N)c3)c2c1` [Example 45, (Z)-3-(3-amino-phenyl)-2-(5-methoxy-1H-indol-3-yl)-acrylonitrile]: the IC50 is more than 50 µM.

For `COc1cncc(/C=C(\C#N)c2c[nH]c3ccc(OC)cc23)c1` [Example 46, (Z)-2-(5-methoxy-1H-indol-3-yl)-3-(5-methoxy-pyridin-3-yl)-acrylonitrile], the IC50 lay within 10 to 20 µM.

With `COc1ccc2[nH]cc(/C(C#N)=C/c3cnccc3Cl)c2c1` [Example 47, (Z)-3-(4-chloro-pyridin-3-yl)-2-(5-methoxy-1H-indol-3-yl)-acrylonitrile], the IC50 lay in the range of 5 to 10 µM.

For `COc1ccc2[nH]cc(/C(C#N)=C/c3cccnc3F)c2c1` [Example 48, (Z)-3-(2-fluoropyridin-3-yl)-2-(5-methoxy-1H-indol-3-yl)-acrylonitrile], the IC50 was less than 5 µM.

`COc1ccc2[nH]cc(/C(C#N)=C/c3ccc(Cl)nc3)c2c1` [Example 49, (Z)-3-(6-chloropyridin-3-yl)-2-(5-methoxy-1H-indol-3-yl)-acrylonitrile]: the IC50 lay in the range of 5 to 10 µM.

Regarding `COc1ccc2[nH]cc(/C(C#N)=C/c3ccsc3)c2c1` [Example 50, (Z)-2-(5-methoxy-1H-indol-3-yl)-3-thiophen-3-yl-acrylonitrile], the IC50 was more than 50 µM.

On to `COc1ccc2[nH]cc(/C(C#N)=C/c3cnn(C)c3)c2c1` [Example 51], for which the IC50 is more than 50 µM.

Staying with this test, now noted: basal ATPase activity, absence of MTs; read-out: RabK6 basal IC50 X.
Consider `N#C/C(=C\c1ccccn1)c1c[nH]c2ccccc12` [Example 3, (Z)-2-(1H-indol-3-yl)-3-pyridin-2-yl-acrylonitrile], for which the IC50 is more than 50 µM.

As for `COc1ccc2[nH]cc(/C(C#N)=C/c3cccnc3)c2c1` [Example 4, (Z)-2-(5-methoxy-1H-indol-3-yl)-3-pyridin-3-yl-acrylonitrile], the IC50 was less than 5 µM.

Take `N#C/C(=C\c1cccnc1)c1c[nH]c2ccc(OCc3ccccc3)cc12` [Example 5, (Z)-2-(5-benzyloxy-1H-indol-3-yl)-3-pyridin-3-yl-acrylonitrile]: the IC50 was more than 50 µM.

Take `COc1ccc2[nH]cc(/C(C#N)=C/c3ccccn3)c2c1` [Example 6, (Z)-2-(5-methoxy-1H-indol-3-yl)-3-pyridin-2-yl-acrylonitrile]: the IC50 fell in the range of 10 to 20 µM.

Turning to `COc1ccc2[nH]cc(/C(C#N)=C/c3cc(OC)c(O)c(OC)c3)c2c1` [Example 7, (Z)-3-(4-hydroxy-3,5-dimethoxy-phenyl)-2-(5-methoxy-1H-indol-3-yl)-acrylonitrile], the IC50 is 20 to 50 µM.

With `N#C/C(=C\c1ccccc1)c1c[nH]c2ccccc12` [Example 9, (Z)-2-(1H-indol-3-yl)-3-phenyl-acrylonitrile], the 50% inhibitory concentration (IC50) was 20 to 50 µM.

Turning to `N#C/C(=C\c1ccc2c(c1)OCO2)c1c[nH]c2ccccc12` [Example 11, (Z)-3-benzo[1,3]dioxol-5-yl-2-(1H-indol-3-yl)-acrylonitrile], the IC50 was in the range of 10 to 20 µM.

As for `COc1cc(/C=C(\C#N)c2c[nH]c3ccc(OC)cc23)cc(OC)c1` [Example 14, (Z)-3-(3,5-dimethoxy-phenyl)-2-(5-methoxy-1H-indol-3-yl)-acrylonitrile], the IC50 lay in the range of 5 to 10 µM.

In the case of `N#C/C(=C\c1cncnc1)c1c[nH]c2ccccc12` [Example 15, (Z)-2-(1H-indol-3-yl)-3-pyrimidin-5-yl-acrylonitrile], the IC50 was 10 to 20 µM.

Take `COc1ccc2[nH]cc(/C(C#N)=C/c3cncnc3)c2c1` [Example 16, (Z)-2-(5-methoxy-1H-indol-3-yl)-3-pyrimidin-5-yl-acrylonitrile]: the IC50 was in the range of 5 to 10 µM.

For the molecule `COc1ccc2[nH]cc(C(C#N)Cc3cccnc3)c2c1` (stereo not shown) [Example 18, 2-(5-methoxy-1H-indol-3-yl)-3-pyridin-3-yl-propionitrile], the IC50 is 20 to 50 µM.

For the molecule `CC(=O)Oc1ccc2[nH]cc(/C(C#N)=C/c3cccnc3)c2c1` [Example 20, 3-(1-cyano-2-(pyridin-3-yl)vinyl)-1H-indol-5-yl-acetate], the IC50 is less than 5 µM.

Take `COCC(=O)Oc1ccc2[nH]cc(/C(C#N)=C/c3cccnc3)c2c1` [Example 21, 3-(1-cyano-2-(pyridin-3-yl)vinyl)-1H-indol-5-yl-methoxyacetate]: the IC50 lay within 5 to 10 µM.

Take `CCOc1ccc2[nH]cc(/C(C#N)=C/c3cccnc3)c2c1` [Example 22, (Z)-2-(5-ethoxy-1H-indol-3-yl)-3-pyridin-3-yl-acrylonitrile]: the IC50 was less than 5 µM.

In the case of `CC(C)Oc1ccc2[nH]cc(/C(C#N)=C/c3cccnc3)c2c1` [Example 23, (Z)-2-(5-isopropoxy-1H-indol-3-yl)-3-pyridin-3-yl-acrylonitrile], the IC50 is less than 5 µM.

As to `N#C/C(=C\c1cccnc1)c1c[nH]c2ccc(Cl)cc12` [Example 24, (Z)-2-(5-chloro-1H-indol-3-yl)-3-pyridin-3-yl-acrylonitrile], the IC50 is less than 5 µM.
